Test results as given in patent publication US20240150301A1, “METHODS OF MODULATING ANDROGEN RECEPTOR CONDENSATES” (ETERN BIOPHARMA (SHANGHAI) CO., LTD., priority 2021, published 2024).
Entries after “also recorded” stand apart in the source; their conditions may differ.

Experiments:
Type in all cases: cell-based
AR = molecular target: T1, AR (Homo sapiens, UniProt P10275); assay: Live-cell imaging of AR puncta (LLPS) in LNCaP cells, AR-mEGFP; details: 10 μM compound, 1 nM DHT
T1 construct: expressed in transfected cells; host or cells: LNCaP
T1 sequence (P10275 1-920): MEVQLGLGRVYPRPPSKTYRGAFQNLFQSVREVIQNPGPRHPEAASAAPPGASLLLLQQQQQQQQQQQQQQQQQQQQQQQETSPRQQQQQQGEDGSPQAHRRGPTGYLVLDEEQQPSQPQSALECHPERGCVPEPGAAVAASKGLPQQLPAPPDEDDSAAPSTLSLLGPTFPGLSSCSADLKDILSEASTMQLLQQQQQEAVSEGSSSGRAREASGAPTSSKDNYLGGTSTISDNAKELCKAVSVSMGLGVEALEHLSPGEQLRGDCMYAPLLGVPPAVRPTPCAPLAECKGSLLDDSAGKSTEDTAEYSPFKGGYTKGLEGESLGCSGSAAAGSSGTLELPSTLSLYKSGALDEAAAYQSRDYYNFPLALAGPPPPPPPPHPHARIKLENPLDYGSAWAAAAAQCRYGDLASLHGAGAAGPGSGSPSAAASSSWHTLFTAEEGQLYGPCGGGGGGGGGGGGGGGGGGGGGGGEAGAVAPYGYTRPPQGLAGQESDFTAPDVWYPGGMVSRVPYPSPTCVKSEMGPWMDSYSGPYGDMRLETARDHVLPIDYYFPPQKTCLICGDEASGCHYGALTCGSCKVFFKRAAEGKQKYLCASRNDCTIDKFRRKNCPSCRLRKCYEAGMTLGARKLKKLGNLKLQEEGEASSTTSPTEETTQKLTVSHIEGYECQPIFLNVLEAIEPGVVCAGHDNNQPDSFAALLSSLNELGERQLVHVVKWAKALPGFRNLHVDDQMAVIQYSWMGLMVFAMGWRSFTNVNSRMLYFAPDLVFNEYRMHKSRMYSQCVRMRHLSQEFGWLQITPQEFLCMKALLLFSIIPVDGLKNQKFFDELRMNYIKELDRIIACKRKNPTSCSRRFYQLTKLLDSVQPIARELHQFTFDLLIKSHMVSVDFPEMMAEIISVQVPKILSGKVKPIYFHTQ
Protocol: (§1) Cells were grown on 24-well glass bottom plate (Cellvis, P24-1.5H-N) and images were taken with the Leica TCS SP8 confocal microscopy system using a 100× oil objective (NA=1.4). Cells were imaged on a heated stage (37° C.) and supplemented with warmed (37° C.) humidified air. The microscope was enclosed in an incubation chamber heated to 37° C.
(§2) For compounds treatment assay, LNCaP cells were transfected with an expression vector for AR (AR or AR F877L/T878A)-mEGFP using steroid hormone-free and phenol red-free RPMI media for 24 hours before compound treatment. After 10 μM compounds treatment for 3 hour, LNCaP cells were added with 1 nM DHT. For ligand-independent AR V7-mEGFP expressing LNCaP cells, starvation step is skipped and compounds were added 12 hours after transfection. The final concentration of DMSO was 0.1%. Cells were subjected to microscopic observation every 30 mins after DHT/compounds were added.
(§3) Data was analyzed by images collected from 100 representative fields in each group. The spots quantification was performed based on the area and intensity of the spots through green (AR-mEGFP) channel. Fluorescent images were processed and assembled into figures using LAS X (Leica) and Fiji.
(§4) After 10 μM compounds treatment for 3 hour, LNCaP cells were added with 1 nM DHT. […]

AR V7 = molecular target: T2, AR V7 (Homo sapiens, UniProt P10275); assay: Live-cell imaging of AR puncta (LLPS) in LNCaP cells, AR V7-mEGFP; parameters: expressed in transfected cells; host or cells: LNCaP; details: 10 μM compound, no DHT
T2 sequence (P10275 1-644 isoform P10275-3): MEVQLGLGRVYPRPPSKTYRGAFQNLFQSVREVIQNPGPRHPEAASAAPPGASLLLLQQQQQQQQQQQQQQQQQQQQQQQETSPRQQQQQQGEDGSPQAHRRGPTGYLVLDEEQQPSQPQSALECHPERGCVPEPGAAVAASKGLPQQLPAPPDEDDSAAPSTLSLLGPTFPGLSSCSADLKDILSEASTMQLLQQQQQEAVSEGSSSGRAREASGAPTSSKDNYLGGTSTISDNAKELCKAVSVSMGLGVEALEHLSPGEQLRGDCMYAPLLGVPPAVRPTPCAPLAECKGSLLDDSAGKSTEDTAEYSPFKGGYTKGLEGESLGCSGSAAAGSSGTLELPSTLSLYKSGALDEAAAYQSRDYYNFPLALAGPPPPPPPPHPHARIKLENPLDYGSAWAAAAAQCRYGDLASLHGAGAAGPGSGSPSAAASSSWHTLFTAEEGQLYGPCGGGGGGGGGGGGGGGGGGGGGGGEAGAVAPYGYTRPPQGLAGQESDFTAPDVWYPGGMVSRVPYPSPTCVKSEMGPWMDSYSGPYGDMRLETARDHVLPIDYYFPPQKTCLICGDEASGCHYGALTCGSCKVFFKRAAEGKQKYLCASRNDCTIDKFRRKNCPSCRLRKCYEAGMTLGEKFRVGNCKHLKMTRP
Protocol: as §1, §2, §3, §4

VCaP cells = assay: Cell proliferation assay (CellTiter-Glo), VCaP; details: Homo sapiens, 96 h, 4 days, read-out: VCaP IC50 AR-positive, AR-V7 positive (cell proliferation)
Protocol: To evaluate the effect of exemplary compounds on proliferation of AR/AR-V7-dependent prostate cancer cells, cell viability assay was performed in LNCaP (AR-positive), 22Rv1 (AR-positive; AR-V7 positive), VCaP (AR-positive; AR-V7 positive), and DU145 (AR-negative) cells, respectively.
LNCaP cells were seeded in charcoal stripped FBS/phenol red-free RPMI medium in 96-well plates for 24 h before pretreating for 1 h with test compounds prior to addition of 0.2 nM DHT for 4 days. 22Rv1 or VCaP cells were cultured in charcoal stripped FBS/phenol red-free RPMI medium for 24 h before addition of test compounds for 4 days. DU145 cells were seeded in complete medium for 24 h before addition of test compounds for 4 days. Cell proliferation was measured with CellTiter-Glo® Luminescent Cell Viability Assay (Promega). In LNCaP cells, DHT-dependent cell growth is calculated by measuring the difference between vehicle control (DMSO) cells treated with or without 0.2 nM DHT. The IC50 values were determined using the four parameter fit via GraphPad Prism graphing software.

Structure (SMILES)	puncta formation / LLPS of AR (AR)	puncta formation / LLPS of AR V7 (AR V7)	IC50 (VCaP cells) [µM]
CC(C)(c1ccc(C#Cc2cnc(NS(C)(=O)=O)nc2)cc1)c1cc(Cl)c(OCCCl)c(C#N)c1 [Compound 60, N-(5-((4-(2-(3-chloro-4-(2-chloroethoxy)-5-cyanophenyl)propan-2-yl)phenyl)ethynyl)pyrimidin-2-yl)methanesulfonamide]	could suppress the phase separation; also recorded: abolished the puncta formation	could suppress the phase separation; also recorded: abolished the puncta formation; also recorded: significantly impaired the LLPS	
CC(C)(c1ccc(OCc2ccnc(NS(C)(=O)=O)n2)cc1)c1cc(Cl)c(OCCCl)c(C#N)c1 [Compound AA, N-(4-((4-(2-(3-chloro-4-(2-chloroethoxy)-5-cyanophenyl)propan-2-yl)phenoxy)methyl)pyrimidin-2-yl) methane sulfonamide, reference compound]			> 20
